Earlier results as cited in patent US20100227930A1 (priority 2009, published 2010).

Experiments:
algae = conditions: duration not given
rainbow trout = conditions: in vivo
[1] = compared with the 2:1:1 blend of three quaternary ammonium compounds
fish = conditions: in vivo
[2] = species not given

O=C([O-])CCC(C(=O)[O-])N(CC(=O)[O-])CC(=O)[O-].[Na+].[Na+].[Na+].[Na+] (stereo not drawn) [Dissolvine GL, Glutamic acid, N,N Diacetic acid and their Tetrasodium salts]
EC50 Algae (algae): > 100 µg/mL
EC50 fish (rainbow trout) (rainbow trout): > 100 µg/mL
EC50 Daphnia Magna (Daphnia magna; duration not given): > 100 µg/mL

CCCCCCCCCC[N+](C)(C)CCCCCCCCCC.[Cl-] [didecyl dimethyl ammonium chloride]
water solubility [1]: poorer water solubility

O=C([O-])CC(NC(CC(=O)[O-])C(=O)[O-])C(=O)[O-].[Na+].[Na+].[Na+].[Na+] (stereo not drawn) [IDS, iminodisuccinate tetrasodium salt]
DL50 oral rat acute toxicity: over 2,000 mg/kg
EC50 Algae (algae): 94.5 µg/mL
acute aquatic toxicity fish (fish): 82.6 mg/L
EC0 Daphnia Magna (Daphnia magna; in vivo): 84 mg/L

COC(C)COC(C)CO (stereo not drawn) [Dipropylene glycol methyl ether]
aquatic acute toxicity [2]: > 100 mg/L
